Measurements from patent publication US20060135587A1, “Method and compounds for promoting healing and reducing inflammation” (priority 2002, published 2006).

Assays:
[1] = tested on: carbon tetrachloride-induced liver damage; assay: Carbon tetrachloride-induced liver damage in rats; format: in vivo; details: 20 mg/kg orally; CCl4 intoxication
Method: The prophylactic and therapeutic effects of Compound 2 on liver damage were examined in a carbon tetrachloride intoxication model. Liver dysfunction was induced by the […] injection of a liquid paraffin-based 50% carbon tetrachloride solution at a dose of 0.8 ml per 100 g of body mass daily for four days. Inbred male white rats weighing 200-220 g were treated with Compound 2 at a dose of 20 mg/kg given orally by intragastric tube on the eighth day after injection of carbon tetrachloride, and daily for four days thereafter. Control animals received carbon tetrachloride only. Animals were sacrificed 7 days after the last injection of carbon tetrachloride, when the morphological changes are most pronounced, and samples of liver were taken for histology.

[2] = tested on: chronic active viral hepatitis; assay: Clinical study in chronic active viral hepatitis; format: in vivo, human; details: 600 mg a day orally
Method: 45 patients aged between 18 and 32 years old with chronic active viral hepatitis were divided into 4 groups and kept under observation. All patients had received conventional therapy, usually potassium orotate, riboxin and interferon prior to commencement of the trial.
The first group (10 patients) received conventional therapy for 20 days. Assessment of clinical and biochemical indicators and serology data was carried out repeatedly for 20 days after the beginning of treatment.
The second group (10 patients) received both conventional treatment and prednisolone at a dose of […] for 20 days. In this group the clinical-biochemical and serological analysis took place before the treatment, and 10 days and 20 days after the beginning of treatment.
The third group (10 patients) received both conventional treatment and Compound 2 administered orally at a dose of 600 mg a day for 20 days. The control clinical-biochemical and serological analysis was carried out 20 days after the beginning of treatment.
The fourth group (15 patients) received prednisolone either orally or intravenously at a dose of 15 mg a day for 10 days; then prednisolone was stopped and replaced by Compound 2 at a dose of 600 mg a day for 10 days. […]

guinea pigs = assay: Acute toxicity (LD50) in guinea pigs; format: in vivo; details: oral administration
Description: It is contemplated that in clinical use, treatment using oral tablets will take two to three weeks, with each patient receiving three tablets containing 0.6 g active compound per day.

[3] = tested on: full-thickness skin wounds; assay: Morphological assessment of the wound healing stages; format: in vivo, rats; details: Day 15
Description: An important indicator of wound healing is the morphology and epithelialization of the wound surface (Sarkisov et al, 1981). Samples were taken from experimental animals on the fifth, tenth and fifteenth days of the study described in Example 13, which roughly correspond to the three wound healing stages: the first traumatic inflammation stage is complete by the fifth day, the granulation tissue development stage is complete by the tenth day, and cicatrisation and epithelialization take place from the fifteenth to twentieth days. The results are illustrated in FIG. 1.
A comparative assessment of the healing of a full-thickness wound was performed on the basis of a set of morphological indicators characterising the regeneration process: […]

[4] = tested on: carrageenin-induced inflammation; assay: Carrageenin-induced inflammation in intact and adrenalectomized rats; format: in vivo
Method: An acute inflammatory oedema was induced in intact and adrenalectomized male rats weighing 180-200 g by sub-plantar injection of 0.1 ml of 1% carrageenin solution into the left paw (Winter et al., 1962). The same volume of saline solution was injected into the contralateral paw. […] There were 10 rats in each group.
The degree of carrageenin-induced inflammation of the ankle joints was assessed at 3 hours after the induction of the inflammation, on the basis of the change in weight of the experimental and control paws (reaction index).

mice, rats, dogs = assay: Chronic toxicity studies over six months; format: in vivo; details: mice and rats 40 mg/kg per day subcutaneously, dogs 10 or 40 mg/kg per day orally
Method: No effect on body weight, weight of internal organs, structure or function of internal organs or blood indicators was observed. These studies were performed in mice (40 mg/kg per day, given subcutaneously), in rats (40 mg/kg per day, given subcutaneously) and in dogs (10 mg/kg or 40 mg/kg per day, given orally).

wounds = assay: Treatment of wounds in human patients; format: in vivo
Method: The effect of Compound 2 on the healing of different types of wounds was tested in human patients. A powder, solution or ointment of the substance containing the active agent in a proportion of 5% to 95% was applied to the wound. In all cases the wounds healed rapidly without infection or scarring.

myocardial infarction = assay: Clinical trial in subacute myocardial infarction and cardiac insufficiency (Example 23); format: in vivo, human
Method: A clinical trial of Compound 2 was carried out on 100 patients aged from 25 to 75 years during the subacute period of myocardial infarction. Each patient continued to receive the treatment which s/he had been given prior to commencement of the trial. Compound 2 was administered in addition to the previous treatment. A control group received conventional treatment, ie. nitrate, anticoagulants and/or hypotensive agents as appropriate. The results of treatment of these two groups were compared with groups of patients receiving riboxine and placebo. Compound 2 was administered over a period of three weeks from the 7th to 28th days following infarction, and was administered orally at a dose of three 0.2 g tablets per day.
The effects of treatment were monitored by 12-lead electrocardiography, using the QRS Scoring System. Haemodynamic parameters and the contractile function of the myocardium were monitored using a Toshiba ultrasound camera model SSH-60A, using conventional methods.
The effect of Compound 2 was also studied in 25 patients aged 43 to 66 years suffering from cardiac insufficiency, in comparison with riboxine or a placebo.

[5] = Adrenalectomized animals, 50 mg/kg 4 days + carrageenin
[6] = Adrenalectomized animals, 100 mg/kg 4 days + carrageenin
[7] = Intact animals, 100 mg/kg 4 days + carrageenin

CC[n+]1cn(C)c(C(=O)NC)c1C(=O)NC.O=S(=O)([O-])c1ccccc1 [Compound 2, 1-methyl-3-ethyl-4,5-bis(N-methylcarbamoyl)-imidazolium benzenesulfonate]
Average mitotic index [1]: 0.021 ± 0.001 arbitrary
Elimination of glycogen from damaged zones (arbitrary) [1]: 4.9 ± 0.4 arbitrary
Necrosis of hepatocytes (arbitrary) [1]: 2.7 ± 0.3 arbitrary
clinical picture and biochemical indicators [2]: improves the clinical picture and normalizes biochemical indicators
LD50 (guinea pigs): more than 20000 mg/kg
animals showing complete epithelialization of the wound [3]: 60%
animals showing incomplete epithelialization [3]: 40%
Inhibition of oedema(%) [4, 5]: 27.88%
Reaction index (%) [4, 5]: 31.04 ± 2.49 %
Inhibition of oedema(%) [4, 6]: 44.43%
Reaction index (%) [4, 6]: 25.63 ± 2.86 %
Inhibition of oedema(%) ([4]; Intact animals, 50 mg/kg orally 4 days + carrageenin): 30.41%
Reaction index (%) ([4]; Intact animals, 50 mg/kg orally 4 days + carrageenin, 3 hours): 29.96 ± 2.30 %
Inhibition of oedema(%) [4, 7]: 47.43%
Reaction index (%) [4, 7]: 22.63 ± 2.86 %
chronic toxicity findings (mice, rats, dogs): had no irritating or allergic action, does not act on the central nervous system, and has no teratogenic, mutagenic or carcinogenic immunosuppressive activity
wound outcome (wounds; Patient A, incisional wound 5 cm, 10% ointment in lanolin daily for 5 days, at 17 days): there was no scar, and the skin had fully recovered
wound outcome (wounds; Patient B, bed sores on the thigh, 0.5 g finely dispersed powder daily for 5 days, at 16 days): there was no scar, and the skin had fully recovered
wound outcome (wounds; Patient C, second degree thermal burn, 10% sterile aqueous solution, at 16 days): complete recovery of the skin, without scars
wound outcome (wounds; Patient D, abrasion of the left leg, 0.5 g powder mixed with equal amount of talc, at 12 days): the skin had healed completely
wound outcome (wounds; Patient E, erosion of the uterine cervix, 10% ointment on a tampon daily for two weeks, colposcopy at 18 days): the epithelium of the mucous membrane of the uterine cervix had fully recovered
side effects (myocardial infarction; both patient groups): No side effects were observed in either group
recovery of the contractile function of the myocardium versus placebo or riboxine (myocardial infarction; myocardial infarction patients, three 0.2 g tablets per day orally, 7th to 28th day): recovery of the contractile function of the myocardium was more rapid
progression of cardiac insufficiency (myocardial infarction; patients suffering from cardiac insufficiency): prevented the progression of the condition
